Source: PMC8092647, “Assessment of carbapenems in a mouse model of Mycobacterium tuberculosis infection” (PLoS ONE, 2021)
Entries after “also recorded” stand apart in the source; their conditions may differ. Like-named read-outs stand apart in the source and are kept apart here.

What was measured:
[1] = Mouse plasma pharmacokinetics after a single 25 mg/kg sc dose (LC-MS, non-compartmental model); details: for %T>MIC: female BALB/c mice, single 25 mg/kg sc, percentage of time above the MIC over 3 h; for AUC(0-t) / Cmax / half-life / concentration at 3 h: female, BALB/c, mouse, plasma, sc, 25 mg/kg
M. tuberculosis = test system: M. tuberculosis; design: method as in Chambers et al. [7] (imipenem), Kumar et al. [6] (biapenem); details: acute M. tuberculosis infection model in mice; ref Chambers et al. [7] (imipenem), Kumar et al. [6] (biapenem); cited from earlier work
M. tuberculosis H37Rv [2] = test: Minimum inhibitory concentration (MIC) by micro broth dilution, read by visual inspection of the bacterial pellet after 14 d; type: cell-based; details: Mycobacterium tuberculosis, 336 h
[3] = female, BALB/c, mouse, in vivo, sc, 25 mg/kg
in vivo = details: female, BALB/c, mouse, sc, 25 mg/kg
M. tuberculosis H37Rv [4] = test: Sub-acute mouse model of M. tuberculosis infection, lung CFU burden; type: in vivo, BALB/c mice; details: for onset of activity in infected mice (reduction of lung burden at one week vs no-treatment group): 400 mg/kg bid sc + 75 mg/kg clavulanate, little or no reduction at one week; for efficacy in comparison (lung M. tuberculosis burden): 1 and 3 weeks
[5] = M. tuberculosis H37Rv, 7H9 broth without Tween-80, 14 d, drug alone without clavulanate, read-out: MIC
[6] = carbapenems 400 mg/kg bid sc + 75 mg/kg clavulanate, rifampin 10 mg/kg once daily orally

In the case of `C[C@@H](O)[C@H]1C(=O)N2C(C(=O)[O-])=C(SC3Cn4cnc[n+]4C3)[C@H](C)[C@H]12` (stereo partly drawn) [Biapenem, reference compound], the “%T>MIC” value [1] is reported as 33–100%, the AUC(0-t) [1] is reported as 63300 ng·h/mL and the Cmax [1] is reported as 55600 ng/mL. The half-life [1] was 17.3 min, the “onset of activity in infected mice” value (M. tuberculosis) was “delayed activity” and the MIC (M. tuberculosis H37Rv [2]; [5]) was 2.5 to 5 µg/mL.
With `C[C@@H](O)[C@H]1C(=O)N2C(C(=O)O)=C(SCC(=O)OC(C)(C)C)[C@H](C)[C@H]12` [JSF-2196] the “%T>MIC” value [3] was 17–33%, the AUC(0-t) (in vivo) was 9060 ng·h/mL and the Cmax (in vivo) was 20500 ng/mL. For the same compound, the half-life (in vivo) was 13.8 min and the MIC (M. tuberculosis H37Rv [2]; [5]) was 2 to 4 µg/mL.
In the case of `CSC1=C(C(=O)[O-])N2C(=O)[C@H]([C@@H](C)O)[C@H]2[C@H]1C.[Na+]` [JSF-2204, Sodium (4R,5S,6S)-6-((R)-1-hydroxyethyl)-4-methyl-3-(methylthio)-7-oxo-1-azabicyclo[3.2.0]hept-2-ene-2-carboxylate], the “%T>MIC” value [1] is reported as 33–100%, the AUC(0-t) [1] is reported as 23000 ng·h/mL and the Cmax [1] is reported as 63000 ng/mL. The “onset of activity in infected mice (reduction of lung burden at one week vs no-treatment group)” value (M. tuberculosis H37Rv [4]) was “delayed activity”, the “efficacy in comparison (lung M. tuberculosis burden)” value (M. tuberculosis H37Rv [4]; [6]) was “efficacy equivalent to that of meropenem; also recorded: inferior to rifampin; also recorded: statistically indistinguishable efficacy; also recorded: statistically equivalent performance to meropenem” and the MIC (M. tuberculosis H37Rv [2]; H37RV) was 0.25 to 0.5 µg/mL.
In the case of `C[C@@H](O)[C@H]1C(=O)N2C(C(=O)O)=C(SCC(F)(F)F)[C@H](C)[C@H]12` [JSF-2415], the “%T>MIC” value [3] is reported as 17–33%, the AUC(0-t) (in vivo) is reported as 12500 ng·h/mL and the Cmax (in vivo) is reported as 34800 ng/mL. For the same compound, the half-life (in vivo) was 14.5 min and the MIC (M. tuberculosis H37Rv [2]; [5]) was 4 to 8 µg/mL.
In the case of `C[C@@H](O)[C@H]1C(=O)N2C(C(=O)[O-])=C(SCCc3ccccc3)[C@H](C)[C@H]12.[Na+]` [JSF-2417, Sodium (4R,5S,6S)-6-((R)-1-hydroxyethyl)-4-methyl-7-oxo-3-(phenethylthio)-1-azabicyclo[3.2.0]hept-2-ene-2-carboxylate], the “%T>MIC” value [1] is reported as 8.3–33%, the AUC(0-t) [1] is reported as 5740 ng·h/mL and the Cmax [1] is reported as 5190 ng/mL. For the same compound, the concentration at 3 h [1] was 262 ng/mL, the half-life [1] was 38.8 min and the “onset of activity in infected mice (reduction of lung burden at one week vs no-treatment group)” value (M. tuberculosis H37Rv [4]) was “delayed activity”. The “efficacy in comparison (lung M. tuberculosis burden)” value (M. tuberculosis H37Rv [4]; [6]) was “inferior” and the MIC (M. tuberculosis H37Rv [2]; H37RV) was 2 to 4 µg/mL.
With `C[C@@H](O)[C@H]1C(=O)N2C(C(=O)[O-])=C(SCCC(=O)N3CCOCC3)[C@H](C)[C@H]12.[Na+]` [JSF-2700, Sodium (4R,5S,6S)-6-((R)-1-hydroxyethyl)-4-methyl-3-((3-morpholino-3-oxopropyl)thio)-7-oxo-1-azabicyclo[3.2.0]hept-2-ene-2-carboxylate] the “%T>MIC” value [1] was 8.3–33%, the AUC(0-t) [1] was 5930 ng·h/mL and the Cmax [1] was 17400 ng/mL. The concentration at 3 h [1] was 6 ng/mL, the half-life [1] was 15.5 min and the MIC (M. tuberculosis H37Rv [2]; H37RV) was 2 to 4 µg/mL.
For `C[C@@H](O)[C@H]1C(=O)N2C(C(=O)O)=C(S[C@@H]3CN[C@H](C(=O)N(C)C)C3)[C@H](C)[C@H]12` [Meropenem, reference compound], the “%T>MIC” value [1] was under 8.3%, the AUC(0-t) [1] was 613 ng·h/mL and the Cmax [1] was 1340 ng/mL. For the same compound, the half-life [1] was 27.8 min, the “onset of activity in infected mice (reduction of lung burden at one week vs no-treatment group)” value (M. tuberculosis H37Rv [4]) was “delayed activity” and the MIC (M. tuberculosis H37Rv [2]; [5]) was 4 to 8 µg/mL.
For `C[C@@H](O)[C@H]1C(=O)N2C(C(=O)O)=C(SCCN=CN)C[C@H]12` [imipenem], the “onset of activity in infected mice” value (M. tuberculosis) is given as “delayed activity”.
In the case of `CO[C@H]1/C=C/O[C@@]2(C)Oc3c(C)c(O)c4c(O)c(c(/C=N/N5CCN(C)CC5)c(O)c4c3C2=O)NC(=O)/C(C)=C\C=C\[C@H](C)[C@H](O)[C@@H](C)[C@@H](O)[C@@H](C)[C@H](OC(C)=O)[C@@H]1C` [rifampin, reference compound], the “effect on lung bacterial burden after one week of dosing” value (M. tuberculosis H37Rv [4]; rifampin 10 mg/kg once daily orally, 1 week) is reported as “bacteriostatic effect” and the “effect on lung bacterial burden after 3 weeks of dosing” value (M. tuberculosis H37Rv [4]; rifampin 10 mg/kg once daily orally, carbapenems 400 mg/kg bid sc + 75 mg/kg clavulanate, 3 weeks) is reported as “bacteriostatic effect”.
